Test results published in patent publication US20110077581A1, “TARGETED CELLULAR DELIVERY OF NANOPARTICLES” (GEORGIA TECH RESEARCH CORPORATION, priority 2009, published 2011).
Like-named read-outs stand apart in the source and are kept apart here.

Legend:
MCF-7 cells = test: In vitro laser photothermal therapy of MCF-7 cells; assay type: cell-based, human; conditions: MCF-7, 0.5 μM, 24 h
Procedure: Following this incubation, cell cultures ere gently rinsed in sterile DPBS buffer and replaced with unmodified growth media prior to laser photothermal treatment. Laser photothermal treatment was performed using the 514.5 nm line of an argon ion laser (Innova 300 Coherent) for 2 min at room temperature (0.32 cm^2). Control cells were similarly removed, however, were untreated with the laser.

[1] = cited from earlier work
[2] = test system: ERα(+) MCF-7 breast cancer cells; test: Cell viability assay (MTT or XTT) in ERα(+) MCF-7 breast cancer cells; assay type: cell-based, human; conditions: conjugate as effective TAM-PEG-SH ligand concentration, read-out: IC50 (50% inhibitory concentration), cell viability
Procedure: Cell culture and nanoparticle incubation. ERα(−) MDA-MB-231 and ERα(+) MCF-7 breast cancer cells (human adenocarcinoma, ATCC) or ERα(+) human squamous cell carcinoma (43-45) (HSC-3) cells were cultured to 10^5 cells/cm^2 in DMEM growth media supplanted with 10% v/v heat-inactivated fetal bovine serum, penicillin (100 U/ml), streptomycin (100 μg/ml), 4.5 g/L glucose, […], without L-glutamine and phenol red at 37° C. in a 5% CO2 humidified atmosphere. Growth media was removed from the cell cultures and replaced with identical media containing gold nanoparticle conjugates heated to 37° C. at time=0 h.
Cell viability assay. Following incubation, growth media containing gold nanoparticle conjugates was removed and cells were rinsed twice in sterile Dulbecco's phosphate buffered saline (DPBS). Mitochondrial dehydrogenase activity was assessed by MTT or XTT spectrophotometric assay (Sigma TOX1, TOX2) following the manufacturer's instructions. The assay was performed using a SpectraMax Plus 384 microplate reader and statistical analysis was performed by t-test.

Row | Molecule | in vitro cytotoxicity in the absence of laser treatment (MCF-7 cells) | steady-state blood plasma concentration ([1]; tamoxifen administered at 10 mg/day) [µM] | steady-state blood plasma concentration ([1]; tamoxifen administered at 20 mg/day) [µM] | IC50 ([2]; MCF-7, 24 h incubation) [nM] | IC50 ([2]; MCF-7, 36 h incubation) [nM] | IC50 ([2]; MCF-7, 48 h incubation) [nM]
1 | CC/C(=C(\c1ccccc1)c1ccc(OCCN(C)C)cc1)c1ccccc1 [tamoxifen] | no appreciable in vitro cytotoxicity | 0.40 | 0.81 | – | – | –
2 | Thiol-pegylated tamoxifen [TAM-PEG-SH] | – | – | – | 3600 | 1400 | 1100
